The values that follow come from US9138423B2, “Use of inhibitors of porphobilinogen deaminase in the treatment of congenital erythropoietic porphyria” (Asociación Centro de Investigación Cooperativa en …, priority 2010, dated 2015).

In assay [1] the target is porphobilinogen deaminase (PBGD) (Homo sapiens (Human), UniProt P08397). The assay can be described thus: Enzymatic assay of porphobilinogen deaminase catalytic activity (Lineweaver-Burk, inhibition constants). The format is biochemical. The following applies: for pKi: global data fitting of all values in presence of inhibitor, 37° C., pH 8.0, read-out: Ki (inhibition constant of the catalytic activity of the PBGD). On the procedure: Obtaining and purifying the enzyme: The enzyme is obtained and purified by following the method published by Millet O et al. (2009) Biochemistry 48: 454-461.
Enzymatic assay: The assay is based on the method described by Jordan (Shoolingin-Jordan P M et al. (1997). Methods in enzymology 281: 327-336) with some modifications. 10 μL of porphobilinogen deaminase (PBGD) at a concentration of 150 μM in 48 μL of buffer (20 mM Tris-HCl pH 8.0, NaCl 150 mM) is preheated at 37° C. for two minutes. If the assay is performed in the presence of an inhibitor, the latter is added in dissolved form into the buffer. 25 μL of the porphobilinogen (PBG) substrate are then added, diluted to different concentrations (0.15, 0.3, 0.45, 0.6, 0.9, 1.2, 1.5, 1.8, 2.1, 2.4, 2.7, 3, 3.3, 3.9 mM) in the aforementioned buffer and are incubated at 37° C. for five minutes. A control assay containing a buffer without substrate (PBG) in the same proportions is performed at the same time. The enzymatic reaction is stopped by means of freezing the samples in liquid nitrogen. Then the mixture is incubated again with 6 μL of 25 mM uroporphyrinogen 3 synthase (U3S) at 37° C. for 30 minutes to transform the pre-uroporphyrinogen into uroporphyrinogen III. The reaction is again stopped by means of freezing in liquid nitrogen. Then the formed […] uroporphyrinogens are oxidized to uroporphyrins by means of adding 25 μL of I2/KI solution and incubation for 10 minutes in ice and darkness. The iodine excess is then bleached by adding 25 μL of saturated sodium metabisulfite solution. […] Finally, different dilutions of the supernatant in 0.1 M HCl are prepared to measure the change of absorbance at 405 nm with respect to the control sample.
Calculation of inhibition constants: Inhibition constants have been calculated from the global data fitting of all values in presence of inhibitor according to the methodologies disclosed in the prior art (Structure and mechanism in protein Science, Alan Fersht, 1999, Ed. Freeman and Co. (New York), Pag. 105-115).

Assay [2] deals with porphobilinogen deaminase of Arabidopsis thaliana (Arabidopsis thaliana (Mouse-ear cress), UniProt Q43316). The note with it: Arabidopsis thaliana enzyme; non-specific chemical modification; cited from earlier work.
For assay [3], the target named is Escherichia coli porphobilinogen deaminase (Escherichia coli (strain K12), UniProt P06983). The note with it: Escherichia coli enzyme; cited from earlier work.

SMILES strings stand for the structures. pKi: −log10 of the molar value.

Chain of porphobilinogen deaminase (PBGD) (P08397 whole entry): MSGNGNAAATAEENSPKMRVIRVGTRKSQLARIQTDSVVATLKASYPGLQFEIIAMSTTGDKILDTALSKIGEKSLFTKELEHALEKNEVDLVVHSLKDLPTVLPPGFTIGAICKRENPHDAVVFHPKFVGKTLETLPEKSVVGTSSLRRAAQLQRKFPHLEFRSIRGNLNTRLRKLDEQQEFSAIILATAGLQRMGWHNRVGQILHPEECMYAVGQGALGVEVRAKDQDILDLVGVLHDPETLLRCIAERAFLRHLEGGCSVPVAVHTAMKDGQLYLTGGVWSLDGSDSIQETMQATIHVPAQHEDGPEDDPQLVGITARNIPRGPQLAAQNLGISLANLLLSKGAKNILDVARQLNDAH
Chain of porphobilinogen deaminase of Arabidopsis thaliana (Q43316 63-382): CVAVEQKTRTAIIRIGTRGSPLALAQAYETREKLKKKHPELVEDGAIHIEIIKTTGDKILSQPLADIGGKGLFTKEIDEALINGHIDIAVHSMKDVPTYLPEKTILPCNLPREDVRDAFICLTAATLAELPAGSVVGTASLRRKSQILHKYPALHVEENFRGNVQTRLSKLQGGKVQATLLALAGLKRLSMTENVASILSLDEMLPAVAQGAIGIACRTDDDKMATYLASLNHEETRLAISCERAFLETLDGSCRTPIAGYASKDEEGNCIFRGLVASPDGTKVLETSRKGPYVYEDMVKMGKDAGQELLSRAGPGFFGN
Chain of Escherichia coli porphobilinogen deaminase (P06983 whole entry): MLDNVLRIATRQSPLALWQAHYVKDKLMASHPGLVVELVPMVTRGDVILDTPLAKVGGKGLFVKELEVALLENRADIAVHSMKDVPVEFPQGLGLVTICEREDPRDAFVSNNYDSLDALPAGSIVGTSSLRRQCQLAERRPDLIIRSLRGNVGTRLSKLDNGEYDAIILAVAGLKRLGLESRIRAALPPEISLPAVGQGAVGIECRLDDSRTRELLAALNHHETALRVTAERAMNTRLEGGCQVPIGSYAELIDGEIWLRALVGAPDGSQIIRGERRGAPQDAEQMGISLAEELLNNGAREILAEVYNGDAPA

On to `Cc1c[nH]c(C)c1` [2,4-CH3-PYR, 2,4-dimethyl-1H-pyrrole], for which the pKi in assay [1] is 5.22.

Consider `Cc1ccc(C)[nH]1` [2,5-CH3-PYR, 2,5-dimethyl-1H-pyrrole], for which, in assay [1], the pKi was 5.52.

For `OCCS` [2-mercaptoethanol], the “effect on catalytic activity of porphobilinogen deaminase” value in assay [2] was “significantly alter the catalytic activity”.

On to `N[C@H](Cc1c[nH]c2ccccc12)C(=O)O` [DTRP, 2R-amino-3-(1H-indol-3-yl) propanoic acid], for which the “type of inhibition of the catalytic activity of PBGD (Lineweaver-Burk plot)” value in assay [1] (increasing amounts of inhibitor, change in slope with same intercept) is recorded as “competitive inhibition”.

As for `CCN1C(=O)C=CC1=O` [N-ethylmaleimide], the “effect on catalytic activity of porphobilinogen deaminase” value in assay [2] is given as “low inhibition”; in assay [3] it was “strongly deactivates”.
